From ChEMBL document CHEMBL1201862, “PubChem BioAssay data set” (2004)
pIC50: −log10 of the molar value. Calls of active or inactive are those of the source.

Tests used:
[1] = target: T1, Estrogen receptor (Homo sapiens, UniProt P03372);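 also: potency for inhibiting coactivator peptide recruitment to the receptor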
T1 sequence (P03372 whole entry): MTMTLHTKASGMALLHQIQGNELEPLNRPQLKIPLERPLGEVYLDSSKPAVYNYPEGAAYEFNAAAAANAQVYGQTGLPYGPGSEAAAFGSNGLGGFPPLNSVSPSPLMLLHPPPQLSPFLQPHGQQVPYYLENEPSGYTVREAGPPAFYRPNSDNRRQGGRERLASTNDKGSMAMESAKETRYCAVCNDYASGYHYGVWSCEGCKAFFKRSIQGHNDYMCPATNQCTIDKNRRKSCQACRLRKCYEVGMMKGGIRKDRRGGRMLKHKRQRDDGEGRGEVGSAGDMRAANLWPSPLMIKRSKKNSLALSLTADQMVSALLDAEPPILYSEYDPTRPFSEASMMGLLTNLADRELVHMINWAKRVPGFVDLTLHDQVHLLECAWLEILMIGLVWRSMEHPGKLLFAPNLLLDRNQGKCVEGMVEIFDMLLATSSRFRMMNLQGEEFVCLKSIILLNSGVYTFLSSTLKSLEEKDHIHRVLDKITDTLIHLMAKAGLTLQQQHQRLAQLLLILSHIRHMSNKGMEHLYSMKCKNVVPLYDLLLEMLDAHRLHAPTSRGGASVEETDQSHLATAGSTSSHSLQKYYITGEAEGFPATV

[2] = target: T2, Voltage-gated N-type calcium channel alpha-1B subunit/Amyloid beta A4 precursor protein-binding family A member 1 (Homo sapiens, UniProt Q00975+Q02410); format: protein assay
[3] = target: T3, Genome polyprotein (Hepatitis C virus, UniProt Q2Q167); assay: disruption of hepatitis C core self-association – biochemical, TR-FRET, dose response (AID 2159); design: species or system Hepacivirus hominis;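 also: blocks dimerization of HCV core protein measured by TR-FRET between tagged core106 pairs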
T3 sequence (Q2Q167 whole entry): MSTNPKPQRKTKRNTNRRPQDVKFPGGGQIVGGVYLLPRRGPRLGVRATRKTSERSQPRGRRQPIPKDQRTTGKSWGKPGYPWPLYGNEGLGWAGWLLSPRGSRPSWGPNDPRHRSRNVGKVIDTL

[4] = target: Large T antigen (Simian virus 40, UniProt P03070); format: functional, Betapolyomavirus macacae;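 also: Confirmatory-stage PubChem screen for compounds that inhibit SV40 T antigen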
[5] = target: T2, Voltage-gated N-type calcium channel alpha-1B subunit/Amyloid beta A4 precursor protein-binding family A member 1; format: protein assay; remark: listed apart in the source
[6] = target: DNA dC->dU-editing enzyme APOBEC-3G (Homo sapiens, UniProt Q9HC16); format: functional;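 also: Dose-response counterscreen measuring inhibition of APOBEC3G DNA deaminase activity, run while confirming APOBEC3A inhibitors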
[7] = target: DNA dC->dU-editing enzyme APOBEC-3A (Homo sapiens, UniProt P31941); assay: Dose Response confirmation of small molecule APOBEC3A DNA Deaminase Inhibitors via a fluorescence-based single-stranded DNA deaminase assay. [Related pubchem assays (depositor defined):AID493011, AID493024]; format: functional
[8] = target: Eukaryotic translation initiation factor 4E (Mus musculus, UniProt P63073); assay: blockers of eIF4G binding by eIF4E – biochemical, TR-FRET, dose response (AID 855); format: functional;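 also: potency for disrupting eIF4E binding to eIF4GI seen as loss of FRET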
[9] = target: T4, Apoptotic protease-activating factor 1 (Homo sapiens, UniProt O14727); format: functional
T4 sequence (O14727 whole entry): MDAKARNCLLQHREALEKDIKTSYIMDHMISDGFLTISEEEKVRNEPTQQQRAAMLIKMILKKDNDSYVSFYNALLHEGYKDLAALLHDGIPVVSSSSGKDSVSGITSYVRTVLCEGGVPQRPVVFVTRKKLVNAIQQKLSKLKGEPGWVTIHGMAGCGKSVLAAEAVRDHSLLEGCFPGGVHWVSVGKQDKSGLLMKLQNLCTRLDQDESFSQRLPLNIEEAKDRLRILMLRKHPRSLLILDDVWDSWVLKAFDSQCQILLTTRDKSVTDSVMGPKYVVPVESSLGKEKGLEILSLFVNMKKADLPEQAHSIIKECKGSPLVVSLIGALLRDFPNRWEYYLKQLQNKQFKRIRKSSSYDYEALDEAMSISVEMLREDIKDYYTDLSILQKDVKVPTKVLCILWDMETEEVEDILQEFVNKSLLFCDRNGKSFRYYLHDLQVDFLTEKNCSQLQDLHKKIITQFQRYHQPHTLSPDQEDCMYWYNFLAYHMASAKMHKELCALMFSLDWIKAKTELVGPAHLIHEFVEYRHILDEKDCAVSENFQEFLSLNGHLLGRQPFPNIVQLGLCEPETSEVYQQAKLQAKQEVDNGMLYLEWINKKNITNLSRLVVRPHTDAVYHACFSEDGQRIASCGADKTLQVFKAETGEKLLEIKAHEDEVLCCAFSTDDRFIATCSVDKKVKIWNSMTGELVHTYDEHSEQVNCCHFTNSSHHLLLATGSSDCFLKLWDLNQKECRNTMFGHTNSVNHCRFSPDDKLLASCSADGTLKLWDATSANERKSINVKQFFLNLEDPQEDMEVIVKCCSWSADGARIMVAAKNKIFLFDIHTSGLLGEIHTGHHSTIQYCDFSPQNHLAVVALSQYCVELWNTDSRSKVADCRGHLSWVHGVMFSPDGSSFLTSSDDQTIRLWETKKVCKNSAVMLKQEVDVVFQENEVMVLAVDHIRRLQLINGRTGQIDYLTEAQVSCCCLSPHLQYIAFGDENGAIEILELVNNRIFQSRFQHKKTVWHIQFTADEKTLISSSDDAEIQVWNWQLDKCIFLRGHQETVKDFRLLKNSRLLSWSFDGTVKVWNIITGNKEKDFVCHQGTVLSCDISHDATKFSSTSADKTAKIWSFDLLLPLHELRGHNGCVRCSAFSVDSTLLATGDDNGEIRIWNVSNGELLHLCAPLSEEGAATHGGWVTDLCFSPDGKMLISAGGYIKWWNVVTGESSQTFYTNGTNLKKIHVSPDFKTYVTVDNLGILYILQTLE

[10] = NIH3T3 cell viability loss – ATP luminescence, mouse fibroblasts, counter-screen, dose response (AID 2010); format: functional, cell-based;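 also: cells exposed to compound for about 90 hours before reading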
[11] = A cytotoxicity screen of small molecule inhibitors of the PhoP region in Salmonella typhi identified in the primary screen. [Related pubchem assays: 1850, 1864, 1985 ]; format: functional
[12] = target: T5, Heat shock factor protein 1 (Mus musculus, UniProt P38532); assay: decrease of HSF1-responsive luciferase luminescence – cell-based, NIH3T3, dose retest, confirmation (AID 2382); format: functional;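 also: NIH3T3 fibroblasts with HSF1-driven luciferase reporter stressed by proteasome inhibitor MG132; luminescence from HSF1-driven luciferase expression after 8 hours of MG132 stress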
T5 sequence (P38532 whole entry): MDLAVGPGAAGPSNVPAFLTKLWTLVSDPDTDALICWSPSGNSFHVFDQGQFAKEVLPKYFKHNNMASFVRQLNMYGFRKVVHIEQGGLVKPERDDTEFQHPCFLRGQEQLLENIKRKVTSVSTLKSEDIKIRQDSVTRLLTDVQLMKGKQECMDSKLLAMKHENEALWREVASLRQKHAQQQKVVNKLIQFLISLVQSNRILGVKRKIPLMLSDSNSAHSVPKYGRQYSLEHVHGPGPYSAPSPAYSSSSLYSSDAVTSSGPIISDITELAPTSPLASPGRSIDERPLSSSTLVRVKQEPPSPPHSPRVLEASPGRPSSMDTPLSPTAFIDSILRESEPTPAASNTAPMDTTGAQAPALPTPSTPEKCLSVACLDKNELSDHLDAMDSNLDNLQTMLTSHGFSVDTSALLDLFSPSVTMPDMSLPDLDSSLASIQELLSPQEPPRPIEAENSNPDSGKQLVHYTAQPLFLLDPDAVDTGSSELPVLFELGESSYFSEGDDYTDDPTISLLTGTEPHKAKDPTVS

[13] = tested on: Streptococcus sp. 'group A'; assay: Streptococcus pyogenes SK(-)GAS viability under kanamycin – luminescence, BacTiterGlo, confirmation, counter-screen for streptokinase expression inhibitor project, dose response (AID 1900); format: functional, organism-based
[14] = Trypanosoma cruzi growth suppression in host cells – NIH3T3 host cells, beta-gal luminescence, confirmation (AID 2044); format: functional, cell-based;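 also: intracellular parasites grown in NIH/3T3 mouse fibroblasts as host cells; luminescent beta-galactosidase reporter signal from transgenic T. cruzi replicating inside host cells; inhibitors lower the luminescence signal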
[15] = tested on: Streptococcus; assay: GAS UMAA2166 growth inhibition – luminescence, BacTiterGlo, counter-screen for streptokinase expression inhibitor project, dose response (AID 1915); format: functional, organism-based;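 also: potency for reduction of bacterial viability or growth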
[16] = target: T6, CAAX prenyl protease 2 (Saccharomyces cerevisiae S288c, UniProt Q03530); format: biochemical
T6 sequence (Q03530 whole entry): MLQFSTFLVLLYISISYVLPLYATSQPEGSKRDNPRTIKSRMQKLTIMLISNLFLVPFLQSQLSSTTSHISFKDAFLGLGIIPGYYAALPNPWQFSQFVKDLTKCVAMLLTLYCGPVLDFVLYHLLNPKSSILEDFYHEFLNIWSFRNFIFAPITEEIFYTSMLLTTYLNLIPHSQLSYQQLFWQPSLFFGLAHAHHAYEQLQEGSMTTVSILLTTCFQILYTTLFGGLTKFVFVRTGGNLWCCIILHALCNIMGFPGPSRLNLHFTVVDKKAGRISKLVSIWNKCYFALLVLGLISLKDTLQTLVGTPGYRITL

[17] = target: Mu-type opioid receptor (Homo sapiens, UniProt P35372); assay: HTS Image-Based Screen for Agonists of the MOR Receptor. [Related pubchem assays (depositor defined):AID1777, AID1785, AID1786, AID2133]; format: functional;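 also: imaging of beta-arrestin GFP recruitment into spots after receptor activation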
[18] = target: T7, Kappa-type opioid receptor (Homo sapiens, UniProt P41145); format: functional
[19] = target: T8, Delta-type opioid receptor (Homo sapiens, UniProt P41143); assay: HTS Image-Based Screen for Antagonists of the DOR Receptor. [Related pubchem assays (depositor defined):AID1777, AID1785, AID1786, AID2133]; format: functional
[20] = target: Beta-galactosidase (Escherichia coli, UniProt Q8VNN2); format: functional
[21] = target: T8, Delta-type opioid receptor; assay: HTS Image-Based Screen for Agonists of the DOR Receptor. [Related pubchem assays (depositor defined):AID1777, AID1786, AID2133]; format: functional
[22] = target: Voltage-dependent T-type calcium channel subunit alpha-1H (Homo sapiens, UniProt O95180); format: functional;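 also: channel activity triggered by adding a high calcium stimulation buffer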
[23] = target: T7, Kappa-type opioid receptor; format: functional; remark: listed apart in the source
[24] = target: Phospholipase A2 (Homo sapiens, UniProt P04054); format: functional;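 also: confirmatory dose-response counterscreen on phospholipase A2, testing hits that came from an ultra-high-throughput screen for ATG4B inhibitors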
[25] = target: T9, Alkaline phosphatase, tissue-nonspecific isozyme (Homo sapiens, UniProt P05186); assay: potency against alkaline phosphatase TNAP – biochemical, luminescent, dose response, SAR follow-up (AID 1056)
T9 sequence (P05186 whole entry): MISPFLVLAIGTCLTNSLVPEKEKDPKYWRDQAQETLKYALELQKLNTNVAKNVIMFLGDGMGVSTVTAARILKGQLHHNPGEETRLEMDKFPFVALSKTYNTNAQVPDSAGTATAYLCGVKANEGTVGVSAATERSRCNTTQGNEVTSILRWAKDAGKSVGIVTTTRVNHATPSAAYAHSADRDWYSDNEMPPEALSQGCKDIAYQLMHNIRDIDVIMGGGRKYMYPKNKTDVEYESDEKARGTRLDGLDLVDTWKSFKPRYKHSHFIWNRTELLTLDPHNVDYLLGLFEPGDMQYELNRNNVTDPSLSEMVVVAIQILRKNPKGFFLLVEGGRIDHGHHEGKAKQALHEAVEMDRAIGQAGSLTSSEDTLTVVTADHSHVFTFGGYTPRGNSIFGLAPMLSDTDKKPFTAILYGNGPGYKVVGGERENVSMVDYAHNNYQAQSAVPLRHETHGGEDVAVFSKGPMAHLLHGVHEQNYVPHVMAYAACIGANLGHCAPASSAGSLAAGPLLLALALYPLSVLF

[26] = target: Alkaline phosphatase, placental type (Homo sapiens, UniProt P05187); assay: human placental alkaline phosphatase inhibition – biochemical, luminescence, confirmation (AID 1512); format: functional
Sequence of Alkaline phosphatase, placental type (P05187 whole entry): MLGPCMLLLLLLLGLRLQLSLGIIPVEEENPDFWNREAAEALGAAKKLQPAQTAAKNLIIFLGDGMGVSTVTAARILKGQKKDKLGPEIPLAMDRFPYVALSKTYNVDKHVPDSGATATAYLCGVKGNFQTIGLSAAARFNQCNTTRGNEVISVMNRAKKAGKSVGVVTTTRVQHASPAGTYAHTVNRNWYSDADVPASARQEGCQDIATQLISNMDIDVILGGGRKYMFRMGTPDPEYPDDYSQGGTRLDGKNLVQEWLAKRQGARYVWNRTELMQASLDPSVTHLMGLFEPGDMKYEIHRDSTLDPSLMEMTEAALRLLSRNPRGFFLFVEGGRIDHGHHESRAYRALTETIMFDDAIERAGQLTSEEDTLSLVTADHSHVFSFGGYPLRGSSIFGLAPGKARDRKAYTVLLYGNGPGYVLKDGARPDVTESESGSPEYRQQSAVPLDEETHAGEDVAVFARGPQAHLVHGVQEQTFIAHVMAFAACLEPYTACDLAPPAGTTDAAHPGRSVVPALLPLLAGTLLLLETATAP

Sequence of Eukaryotic translation initiation factor 4E (P63073 whole entry): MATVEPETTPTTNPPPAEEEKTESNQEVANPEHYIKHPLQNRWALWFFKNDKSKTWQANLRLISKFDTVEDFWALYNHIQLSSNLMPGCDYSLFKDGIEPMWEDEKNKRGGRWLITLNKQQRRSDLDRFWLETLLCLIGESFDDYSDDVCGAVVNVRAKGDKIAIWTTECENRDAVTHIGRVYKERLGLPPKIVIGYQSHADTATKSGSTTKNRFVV
T2 sequence (Q00975 whole entry): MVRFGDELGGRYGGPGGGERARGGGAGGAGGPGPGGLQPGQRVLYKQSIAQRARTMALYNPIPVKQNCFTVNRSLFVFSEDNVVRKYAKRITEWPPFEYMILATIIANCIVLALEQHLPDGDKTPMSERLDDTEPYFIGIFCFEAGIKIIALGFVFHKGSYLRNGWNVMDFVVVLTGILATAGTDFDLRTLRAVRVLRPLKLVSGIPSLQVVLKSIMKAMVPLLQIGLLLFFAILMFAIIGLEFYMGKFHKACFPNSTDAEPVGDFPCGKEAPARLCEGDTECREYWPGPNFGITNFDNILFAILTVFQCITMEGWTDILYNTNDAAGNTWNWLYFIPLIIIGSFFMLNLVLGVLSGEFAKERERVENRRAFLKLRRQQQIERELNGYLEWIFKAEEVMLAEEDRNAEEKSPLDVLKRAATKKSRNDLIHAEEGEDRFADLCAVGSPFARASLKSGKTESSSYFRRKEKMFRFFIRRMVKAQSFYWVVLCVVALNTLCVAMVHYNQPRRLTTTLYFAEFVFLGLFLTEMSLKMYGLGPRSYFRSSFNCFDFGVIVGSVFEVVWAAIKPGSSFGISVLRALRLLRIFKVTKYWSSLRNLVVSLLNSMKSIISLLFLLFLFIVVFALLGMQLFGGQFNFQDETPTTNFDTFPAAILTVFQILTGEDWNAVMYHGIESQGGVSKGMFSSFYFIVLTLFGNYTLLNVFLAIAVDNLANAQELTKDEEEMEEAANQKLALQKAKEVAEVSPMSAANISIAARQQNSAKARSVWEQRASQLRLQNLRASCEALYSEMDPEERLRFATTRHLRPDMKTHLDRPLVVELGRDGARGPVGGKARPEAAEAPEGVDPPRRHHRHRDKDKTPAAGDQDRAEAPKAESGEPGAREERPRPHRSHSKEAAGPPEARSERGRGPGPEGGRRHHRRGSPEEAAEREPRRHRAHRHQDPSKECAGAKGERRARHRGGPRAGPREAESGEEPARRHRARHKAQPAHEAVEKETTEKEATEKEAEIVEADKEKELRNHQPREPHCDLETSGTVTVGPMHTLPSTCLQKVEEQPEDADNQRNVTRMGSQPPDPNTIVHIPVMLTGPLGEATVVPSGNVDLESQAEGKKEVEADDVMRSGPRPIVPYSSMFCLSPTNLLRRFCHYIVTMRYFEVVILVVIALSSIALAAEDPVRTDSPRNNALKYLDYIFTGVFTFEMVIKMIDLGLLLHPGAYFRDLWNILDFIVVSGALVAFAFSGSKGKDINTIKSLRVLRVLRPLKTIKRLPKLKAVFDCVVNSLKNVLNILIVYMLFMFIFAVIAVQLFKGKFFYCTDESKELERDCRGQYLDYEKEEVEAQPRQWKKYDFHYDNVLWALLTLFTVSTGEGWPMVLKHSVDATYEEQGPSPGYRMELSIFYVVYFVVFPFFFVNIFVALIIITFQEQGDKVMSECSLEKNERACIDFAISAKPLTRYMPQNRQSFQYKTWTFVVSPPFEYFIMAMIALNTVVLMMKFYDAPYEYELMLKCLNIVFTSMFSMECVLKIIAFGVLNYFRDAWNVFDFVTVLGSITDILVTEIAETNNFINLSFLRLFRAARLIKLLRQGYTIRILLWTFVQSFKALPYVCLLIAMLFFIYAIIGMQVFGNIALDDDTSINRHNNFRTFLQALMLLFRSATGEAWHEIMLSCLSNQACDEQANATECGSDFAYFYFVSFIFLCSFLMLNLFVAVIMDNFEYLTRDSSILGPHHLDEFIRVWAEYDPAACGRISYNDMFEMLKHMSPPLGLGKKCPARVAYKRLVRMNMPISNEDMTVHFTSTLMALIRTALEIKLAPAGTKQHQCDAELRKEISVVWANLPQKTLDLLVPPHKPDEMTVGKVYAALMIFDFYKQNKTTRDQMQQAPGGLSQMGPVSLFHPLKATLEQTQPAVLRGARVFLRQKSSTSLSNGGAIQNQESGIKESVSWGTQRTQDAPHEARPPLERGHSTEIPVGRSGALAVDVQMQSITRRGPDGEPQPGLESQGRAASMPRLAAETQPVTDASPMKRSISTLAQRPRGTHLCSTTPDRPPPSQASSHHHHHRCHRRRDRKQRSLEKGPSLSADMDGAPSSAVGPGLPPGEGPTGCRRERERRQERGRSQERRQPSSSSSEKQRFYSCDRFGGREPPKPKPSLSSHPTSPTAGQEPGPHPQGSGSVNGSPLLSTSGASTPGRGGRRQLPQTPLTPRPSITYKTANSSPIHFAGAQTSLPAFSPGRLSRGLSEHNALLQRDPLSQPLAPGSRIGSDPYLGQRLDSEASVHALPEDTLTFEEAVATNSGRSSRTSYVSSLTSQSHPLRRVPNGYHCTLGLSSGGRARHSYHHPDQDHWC
T2 sequence (Q02410 whole entry): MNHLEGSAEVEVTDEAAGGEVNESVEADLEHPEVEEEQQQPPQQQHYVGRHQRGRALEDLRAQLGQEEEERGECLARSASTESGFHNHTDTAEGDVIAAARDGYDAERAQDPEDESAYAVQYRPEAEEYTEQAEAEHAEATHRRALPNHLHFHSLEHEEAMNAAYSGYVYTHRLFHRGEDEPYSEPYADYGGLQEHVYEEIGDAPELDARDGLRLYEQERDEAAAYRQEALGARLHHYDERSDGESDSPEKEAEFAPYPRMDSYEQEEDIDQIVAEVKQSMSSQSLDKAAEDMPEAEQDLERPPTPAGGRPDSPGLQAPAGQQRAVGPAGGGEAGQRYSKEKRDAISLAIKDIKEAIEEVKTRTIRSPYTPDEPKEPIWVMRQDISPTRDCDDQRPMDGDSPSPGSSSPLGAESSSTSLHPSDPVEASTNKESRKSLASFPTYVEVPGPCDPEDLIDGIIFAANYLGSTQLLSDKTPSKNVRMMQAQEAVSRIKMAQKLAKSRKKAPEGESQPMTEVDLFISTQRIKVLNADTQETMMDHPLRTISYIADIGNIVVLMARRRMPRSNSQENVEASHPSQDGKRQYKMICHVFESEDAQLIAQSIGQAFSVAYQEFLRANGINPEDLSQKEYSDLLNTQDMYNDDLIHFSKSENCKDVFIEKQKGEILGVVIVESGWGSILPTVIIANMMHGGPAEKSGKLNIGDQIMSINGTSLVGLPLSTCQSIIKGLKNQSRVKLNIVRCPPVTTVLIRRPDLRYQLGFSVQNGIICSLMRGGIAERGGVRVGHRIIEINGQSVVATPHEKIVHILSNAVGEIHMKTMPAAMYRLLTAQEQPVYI
Sequence of DNA dC->dU-editing enzyme APOBEC-3A (P31941 whole entry): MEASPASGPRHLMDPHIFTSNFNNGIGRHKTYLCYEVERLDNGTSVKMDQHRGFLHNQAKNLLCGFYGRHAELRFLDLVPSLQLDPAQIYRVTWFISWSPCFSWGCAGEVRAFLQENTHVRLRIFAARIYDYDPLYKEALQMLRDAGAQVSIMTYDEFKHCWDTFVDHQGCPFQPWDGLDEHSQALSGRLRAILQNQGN
T8 sequence (P41143 whole entry): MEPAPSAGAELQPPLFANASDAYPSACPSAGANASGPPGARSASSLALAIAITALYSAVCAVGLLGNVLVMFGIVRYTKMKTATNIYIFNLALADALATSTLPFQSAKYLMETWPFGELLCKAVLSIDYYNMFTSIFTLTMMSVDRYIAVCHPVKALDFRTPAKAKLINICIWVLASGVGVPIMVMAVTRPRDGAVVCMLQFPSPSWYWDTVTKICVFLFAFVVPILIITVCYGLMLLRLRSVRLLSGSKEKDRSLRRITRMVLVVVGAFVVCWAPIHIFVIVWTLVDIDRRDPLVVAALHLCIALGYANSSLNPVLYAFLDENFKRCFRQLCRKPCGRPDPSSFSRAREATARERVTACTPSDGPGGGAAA
T7 sequence (P41145 whole entry): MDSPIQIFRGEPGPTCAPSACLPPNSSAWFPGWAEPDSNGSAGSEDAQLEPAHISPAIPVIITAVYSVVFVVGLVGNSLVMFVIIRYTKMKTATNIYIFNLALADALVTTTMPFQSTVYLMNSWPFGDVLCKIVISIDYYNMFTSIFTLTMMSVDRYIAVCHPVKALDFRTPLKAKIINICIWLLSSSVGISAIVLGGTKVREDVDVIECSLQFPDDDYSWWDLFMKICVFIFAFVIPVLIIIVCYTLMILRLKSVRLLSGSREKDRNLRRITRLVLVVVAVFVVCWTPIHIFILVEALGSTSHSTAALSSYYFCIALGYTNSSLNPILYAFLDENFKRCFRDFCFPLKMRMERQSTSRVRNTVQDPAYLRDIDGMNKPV
Sequence of Phospholipase A2 (P04054 whole entry): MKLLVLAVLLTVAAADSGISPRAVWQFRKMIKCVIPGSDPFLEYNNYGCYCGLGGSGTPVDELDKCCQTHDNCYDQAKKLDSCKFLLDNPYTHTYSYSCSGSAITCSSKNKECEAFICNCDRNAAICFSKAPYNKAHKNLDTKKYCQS

Cc1cccc(N2CSC3=C(C#N)C(c4ccc(C)o4)CC(=O)N3C2)c1 (centres undefined)
IC50 [1]: 3.55 µM (active) | IC50 [2]: 22.3 µM (active) | IC50 [3]: > 49.8 µM (not active) | IC50 [4]: 11.4 µM (active) | IC50 [5]: 6.47 µM (active)

COc1ccc(CCCC(=O)NC2CCCCC2C)c(C)c1 (centres undefined)
IC50 [6]: 2.99 µM (active) | IC50 [7]: 3.49 µM (active)

Cc1cccnc1NC(=O)CN1C(=O)COc2ccc(Cl)cc21
IC50 [6]: 1.65 µM (active) | IC50 [7]: 1.91 µM (active)

CCn1c(C)c(C(C)=O)c(N2CCN(C(=O)c3ccco3)CC2)nc1=S
IC50 [8]: > 64 µM (inactive)

COc1ccccc1N1CCN(C(c2cccs2)C(C)NS(=O)(=O)c2ccccc2)CC1 (centres undefined)
IC50 [9]: 10 µM (active)

Cc1cc(C)nc(NC(=S)Nc2cccc(Cl)c2Cl)c1
IC50 [2]: > 50 µM (inactive) | IC50 [5]: 1.27 µM (active)

CCOc1ccccc1OCc1nn2c(COc3ccccc3)nnc2s1
IC50 [8]: > 64 µM (inactive)

CCc1cccc2c(C(=O)COC(=O)c3ccc([N+](=O)[O-])s3)c[nH]c12
EC50 [10]: > 30 µM (not active) | EC50 [11]: > 50 µM (active) | EC50 [12]: 7.75 µM (active) | EC50 [13]: 0.497 µM (active) | EC50 [14]: 0.739 µM (active) | EC50 [15]: 1.03 µM (active)

Cc1cc(=O)n2ccccc2c1C#N
AC50 [16]: 24.9 µM (active)

O=C(Nc1nnc(-c2cccs2)o1)c1cccc(Oc2ccccc2)c1
EC50 [17]: > 32 µM (inactive) | pIC50 [18]: < 4.49 | IC50 [19]: > 32 µM (inactive) | EC50 [20]: > 31.5 µM (inactive) | EC50 [21]: > 32 µM (inactive) | EC50 [22]: 3.02 µM (active) | IC50 [23]: 9.8 µM (active)

O=C(O)c1cc(-c2ccc(/C=C3/SC(=S)N(Cc4ccccc4)C3=O)o2)ccc1Cl
IC50 [8]: 15.1 µM (active)

N#Cc1c(-c2cccc(Br)c2)cc(-c2ccco2)[nH]c1=O
IC50 [24]: 11.7 µM (active)

Cc1cc(C(=O)NCc2ccc(O)c(O)c2)c(C)o1
IC50 [25]: 12.5 µM (active) | IC50 [26]: > 100 µM (inactive)

O=C(CNC1CCCCC1)c1ccc(O)c(O)c1
IC50 [25]: > 100 µM (inactive) | IC50 [26]: 18.8 µM (active)
